The test concerns the target T1, cGAMP binding domain of wild-type (GRR) human STING, residues 155-341 (Homo sapiens, UniProt Q86WV6, H232R).
T1 construct: His-TEV-hSTING (WT); TEV protease cleavage site (N); made in house; host or cells: E. coli BL21 DE3
Description: Increase of stability of STING protein against thermal denaturation, Differential Scanning Fluorimetry (DSF). In outline: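 3 µM His-tagged protein with 100 uM compound, 5×SYPRO Orange, 2% DMSO in 20 mM Tris, 150 mM NaCl, pH7.5; 15–95 °C ramp in 0.5 °C steps (15 s/cycle). Tm from Boltzmann fit of the dye melt curve, duplicates averaged, repeated if SD>1.5 °C; ΔTm = Tm with compound minus Tm of protein alone.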

DSF data for 22 compounds are collected here from patent publication US20260265244A1, “HETEROCYCLIC COMPOUNDS AS STING ANTAGONISTS” (Boehringer Ingelheim International GmbH, priority 2022, published 2026).

Molecules are shown by their SMILES.

T1 sequence (Q86WV6 with tags, fused parts or gaps H232R): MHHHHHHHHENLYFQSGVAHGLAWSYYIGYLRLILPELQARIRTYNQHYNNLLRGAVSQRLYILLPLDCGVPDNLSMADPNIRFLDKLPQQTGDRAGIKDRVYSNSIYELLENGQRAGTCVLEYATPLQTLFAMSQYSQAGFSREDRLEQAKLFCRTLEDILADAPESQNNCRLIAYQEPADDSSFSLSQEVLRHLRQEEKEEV

`Cc1c(C(C)C)c(-c2cccc3nn(C[C@H](O)c4ccccc4)cc23)nn1-c1cc2cn(C)nc2nc1C1(C)CC1` [Example 80, (1R)-2-(4-{5-methyl-1-[2-methyl-6-(1-methylcyclopropyl)-2H-pyrazolo[3,4-b]pyridin-5-yl]-4-(propan-2-yl)-1H-pyrazol-3-yl}-2H-indazol-2-yl)-1-phenylethan-1-ol] returned a DSF of 26 K.
Turning to `COCCO[C@@H](Cn1cc2c(-c3nn(-c4cc5cn(C)nc5nc4C)c(C)c3C(C)C)cccc2n1)c1ccccc1` [Example 85, 4-(1-{2,6-dimethyl-2H-pyrazolo[3,4-b]pyridin-5-yl}-5-methyl-4-(propan-2-yl)-1H-pyrazol-3-yl)-2-[(2R)-2-(2-methoxyethoxy)-2-phenylethyl]-2H-indazole], the DSF is reported as 23 K.
The compound `COC(C)c1nc2nn(C)cc2cc1-n1nc(-c2cccc3nn(C[C@H](O)c4ccccc4)cc23)c(C(C)C)c1C` (stereo partly shown) [Example 75] came in with a DSF of 28 K.
To `Cc1c(C(C)C)c(-c2cccc3nn(C[C@H](O)c4ccccc4)cc23)nn1-c1cc2cn(C)nc2nc1C(C)(C)O` [Example 89, 2-[5-(3-{2-[(2R)-2-hydroxy-2-phenylethyl]-2H-indazol-4-yl}-5-methyl-4-(propan-2-yl)-1H-pyrazol-1-yl)-2-methyl-2H-pyrazolo[3,4-b]pyridin-6-yl]propan-2-ol] belongs 24 K.
Regarding `CCc1c(-c2cccc3nn(C[C@H](O)c4ccccc4)cc23)nn(-c2cc3cn(C)nc3nc2C)c1CC` [Example 93, (1R)-2-[4-(1-{2,6-dimethyl-2H-pyrazolo[3,4-b]pyridin-5-yl}-4,5-diethyl-1H-pyrazol-3-yl)-2H-indazol-2-yl]-1-phenylethan-1-ol], the DSF is on record as 26 K.
In turn, `Cc1cc([C@@H](O)Cn2cc3c(-c4nn(-c5cc6cn(C)nc6nc5C)c(C)c4C(C)C)cccc3n2)ccn1` [Example 82, (1R)-2-[4-(1-{2,6-dimethyl-2H-pyrazolo[3,4-b]pyridin-5-yl}-5-methyl-4-(propan-2-yl)-1H-pyrazol-3-yl)-2H-indazol-2-yl]-1-(2-methylpyridin-4-yl)ethan-1-ol] returned a DSF of 27 K.
In the case of `[2H][C@](O)(Cn1cc2c(-c3nn(-c4cc5cn(C)nc5nc4C)c(C)c3C(C)C)cccc2n1)c1ccccc1` [Example 3, (1R)-2-[4-(1-{2,6-dimethyl-2H-pyrazolo[3,4-b]pyridin-5-yl}-5-methyl-4-(propan-2-yl)-1H-pyrazol-3-yl)-2H-indazol-2-yl]-1-phenyl(1-^2H)ethan-1-ol], the DSF turned out to be 28 K.
`Cc1nc2nn(C)cc2cc1-n1nc(-c2cccc3nn(CC(O)c4ccc(Br)cc4)cc23)c(C(C)C)c1C` (stereo not shown) [Example 88, 1-(4-Bromophenyl)-2-[4-(1-{2,6-dimethyl-2H-pyrazolo[3,4-b]pyridin-5-yl}-5-methyl-4-(propan-2-yl)-1H-pyrazol-3-yl)-2H-indazol-2-yl]ethan-1-ol] gave a DSF of 25 K.
Compound `Cc1nc2nn(C)cc2cc1-n1nc(-c2cccc3nn(C[C@H](O)c4ccccc4)cc23)c(C(C)CO)c1C` (stereo partly drawn) [Example 95, 2-(1-{2,6-dimethyl-2H-pyrazolo[3,4-b]pyridin-5-yl}-3-{2-[(2R)-2-hydroxy-2-phenylethyl]-2H-indazol-4-yl}-5-methyl-1H-pyrazol-4-yl)propan-1-ol] yielded a DSF of 24 K.
For the compound `Cn1cc2cc(-c3nc(-c4cccc5nn(C[C@H](O)c6ccc(OCC#N)cc6)cc45)c(C4CC4)n3C)c(C3CC3)nc2n1` [Example 90, 2-{4-[(1R)-2-[4-(5-cyclopropyl-2-{6-cyclopropyl-2-methyl-2H-pyrazolo[3,4-b]pyridin-5-yl}-1-methyl-1H-imidazol-4-yl)-2H-indazol-2-yl]-1-hydroxyethyl]phenoxy} acetonitrile], the DSF amounted to 29 K.
For `CCCO[C@@H](Cn1cc2c(-c3nn(-c4cc5cn(C)nc5nc4C)c(C)c3C(C)C)cccc2n1)c1ccccc1` [Example 81, 4-(1-{2,6-dimethyl-2H-pyrazolo[3,4-b]pyridin-5-yl}-5-methyl-4-(propan-2-yl)-1H-pyrazol-3-yl)-2-[(2R)-2-phenyl-2-propoxyethyl]-2H-indazole], the DSF amounted to 22 K.
To `Cc1c(C(C)C)c(-c2cccc3nn(C[C@H](O)c4ccccc4)cc23)nn1-c1cc2cn(C)nc2nc1N(C)C` [Example 87, (1R)-2-(4-{1-[6-(dimethylamino)-2-methyl-2H-pyrazolo[3,4-b]pyridin-5-yl]-5-methyl-4-(propan-2-yl)-1H-pyrazol-3-yl}-2H-indazol-2-yl)-1-phenylethan-1-ol] belongs 24 K.
In turn, `Cn1cc([C@@H](O)Cn2cc3c(-c4nc(-c5cc6cn(C)nc6nc5C5CC5)n(C)c4C4CC4)cccc3n2)cn1` [Example 91, (1R)-2-[4-(5-cyclopropyl-2-{6-cyclopropyl-2-methyl-2H-pyrazolo[3,4-b]pyridin-5-yl}-1-methyl-1H-imidazol-4-yl)-2H-indazol-2-yl]-1-(1-methyl-1H-pyrazol-4-yl)ethan-1-ol] yielded a DSF of 29 K.
In the case of `CNc1nc2nn(C)cc2cc1-n1nc(-c2cccc3nn(C[C@H](O)c4ccccc4)cc23)c(C(C)C)c1C` [Example 84, (1R)-2-(4-{5-methyl-1-[2-methyl-6-(methylamino)-2H-pyrazolo[3,4-b]pyridin-5-yl]-4-(propan-2-yl)-1H-pyrazol-3-yl}-2H-indazol-2-yl)-1-phenylethan-1-ol], the DSF is 27 K.
The compound `Cc1nc2nn(C)cc2cc1-n1nc(-c2cccc3nn(C[C@H](OCCF)c4ccccc4)cc23)c(C(C)C)c1C` [Example 78, 4-(1-{2,6-dimethyl-2H-pyrazolo[3,4-b]pyridin-5-yl}-5-methyl-4-(propan-2-yl)-1H-pyrazol-3-yl)-2-[(2R)-2-(2-fluoroethoxy)-2-phenylethyl]-2H-indazole] had a DSF of 24 K.
Compound `Cc1nc2nn(C)cc2cc1-n1nc(-c2cccc3nn(C[C@H](O)c4ccccc4)cc23)c(C2(C)CC2)c1C` [Example 92, (1R)-2-[4-(1-{2,6-Dimethyl-2H-pyrazolo[3,4-b]pyridin-5-yl}-5-methyl-4-(1-methylcyclopropyl)-1H-pyrazol-3-yl)-2H-indazol-2-yl]-1-phenylethan-1-ol] displayed a DSF of 24 K.
`Cc1nc2nn(C)cc2cc1-n1nc(-c2cccc3nn(C[C@H](OCCC(C)(C)O)c4ccccc4)cc23)c(C(C)C)c1C` [Example 74, 4-[(1R)-2-[4-(1-{2,6-dimethyl-2H-pyrazolo[3,4-b]pyridin-5-yl}-5-methyl-4-(propan-2-yl)-1H-pyrazol-3-yl)-2H-indazol-2-yl]-1-phenylethoxy]-2-methylbutan-2-ol]: the DSF is given as 25 K.
Turning to `Cc1c(C(C)C)c(-c2cccc3nn(C[C@H](O)c4ccccc4)cc23)nn1-c1ccn2c(C(F)F)nnc2c1C1CC1` [Example 76], the DSF is given as 26 K.
To `Cc1c(-n2nc(-c3cccc4nn(C[C@H](O)c5ccccc5)cc34)c(C(C)C)c2C)ccn2c(C)cnc12` [Example 94, (1R)-2-[4-(1-{3,8-dimethylimidazo[1,2-a]pyridin-7-yl}-5-methyl-4-(propan-2-yl)-1H-pyrazol-3-yl)-2H-indazol-2-yl]-1-phenylethan-1-ol] belongs 27 K.
As to `C=CCO[C@@H](Cn1cc2c(-c3nn(-c4cc5cn(C)nc5nc4C)c(C)c3C(C)C)cccc2n1)c1ccccc1` [Example 79, 4-(1-{2,6-dimethyl-2H-pyrazolo[3,4-b]pyridin-5-yl}-5-methyl-4-(propan-2-yl)-1H-pyrazol-3-yl)-2-[(2R)-2-phenyl-2-(prop-2-en-1-yloxy)ethyl]-2H-indazole], the DSF amounted to 23 K.
Compound `Cc1nc2nn(C)cc2cc1-n1nc(-c2cccc3nn(CC(O)C4CCCCC4)cc23)c(C(C)C)c1C` (stereo not shown) [Example 83, 1-cyclohexyl-2-[4-(1-{2,6-dimethyl-2H-pyrazolo[3,4-b]pyridin-5-yl}-5-methyl-4-(propan-2-yl)-1H-pyrazol-3-yl)-2H-indazol-2-yl]ethan-1-ol] yielded a DSF of 24 K.
To `Cc1c(-n2nc(-c3cccc4nn(C[C@H](O)c5ccccc5)cc34)c(C(C)C)c2C)ccn2c(C)nnc12` [Example 86, (1R)-2-[4-(1-{3,8-dimethyl-[1,2,4]triazolo[4,3-a]pyridin-7-yl}-5-methyl-4-(propan-2-yl)-1H-pyrazol-3-yl)-2H-indazol-2-yl]-1-phenylethan-1-ol] belongs 28 K.
